# From patent publication US7371207B2 (Wyeth, priority 2002, dated 2008)
# Test system: gene expression in the uterus
# Experiment: Real-time PCR of uterine gene expression in ovariectomized WT mice
# Type: in vivo, mouse
# Conditions: various doses s.c. six weeks, FIG. 5
# Source text: One week later, the animals were ovariectomized.
compound,measurement,value
"C[C@]12CC[C@@H]3c4ccc(O)cc4CC[C@H]3[C@@H]1CC[C@@H]2O [E2, 17β-estradiol]",ED50 for BCAT1 induction in the uterus,0.2 µg/kg/day
same,ED50 for c-fos induction in the uterus,2.7 µg/kg/day
